From patent publication US20240150293A1, “SPIROCYCLOHEXANE DERIVATIVES, PHARMACEUTICAL COMPOSITIONS CONTAINING THEM AND THEIR USES AS ANTI-APOPTOTIC INHIBITORS” (LES LABORATOIRES SERVIER, priority 2021, published 2024)

What follows are compounds tested against Cy5-labelled Mcl1 (amino acids 171-321) C286S protein (UniProtKB Q07820) (Homo sapiens (Human), UniProt Q07820, C286S) (assay: Inhibition of Mcl-1 by the fluorescence quenching assay (Example A, Method B)). Conditions: not given.
Format: binding
Source text: Fluorescence quenching assay measures the change fluorescence intensity of C-terminally Cy5-labelled Mcl1 (amino acids 171-321) C286S protein (UniProtKB® primary accession number Q07820) having an amino acid sequence:
which is linked at the C-terminus to the amino acid X which corresponds to a cysteine labelled on the sulfur with sulpho-Cyanine5 from Lumiprobe GmbH catalogue number 13380, upon binding of a C-terminally labelled peptide derived from PUMA (UniProtKB® primary accession number Q9BXH1) having an amino acid sequence:
which is linked at the C-terminus to the amino acid X′, where X′ is cysteine labelled on the sulfur with TQ5WS from AAT Bioquest catalogue number 2079.
The addition of a compound which binds competitively to the same site as the peptide will result in an increase in the fluorescence intensity of the protein due to displacement of the fluorescence quencher.
An 11-point serial dilution of each compound was prepared in DMSO, the final buffer conditions were 10 mM 4-(2-hydroxyethyl)-1-piperazineethanesulfonic acid [HEPES], 150 mM NaCl, 0.05% Tween 20, pH 7.4 and 5% DMSO. The final protein concentration in the assay was 1 nM with the peptide present at 10, 20 or 400 nM. The experiments were incubated for 2 hours at room temperature before fluorescence intensity was measured on a Biotek SynergyNeo plate reader (Excitation 620 nm, emission 680 nm). The dose response curves were plotted with XL-Fit software using a 4-Parameter Logistic Model (Sigmoidal DoseResponse Model) and the inhibitory concentrations that gave a 50% increase in fluorescence intensity was determined (IC50). The Ki values were determined from the IC50 values according to Cer et al, Nucleic Acids Res, 2009, 37 (WebServer issue): W441-W445. Inhibition constants (Ki) are determined from complete binding inhibition curves (cKi) or from estimated from incomplete binding inhibition curves (eKi) in most cases due to low activity.

Chain of Cy5-labelled Mcl1 (amino acids 171-321) C286S protein (Q07820 171-321 C286S): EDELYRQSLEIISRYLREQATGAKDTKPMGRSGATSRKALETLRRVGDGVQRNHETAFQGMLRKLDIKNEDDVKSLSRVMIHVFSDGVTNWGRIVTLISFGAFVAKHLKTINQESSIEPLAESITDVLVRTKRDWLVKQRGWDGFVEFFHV

Compound	Ki
O=C(O)[C@]1(Nc2cccc(Cl)c2)CC[C@@]2(CC1)c1ccccc1CC2CC(F)(F)COc1ccnc2c1CCC2 (some centres unmarked) [Example 503, (1r,4r)-4-(3-chloroanilino)-2′-{3-[(6,7-dihydro-5H-cyclopenta[b]pyridin-4-yl)oxy]-2,2-difluoropropyl}-2′,3′-dihydrospiro[cyclohexane-1,1′-indene]-4-carboxylic acid]	63.8 nM
Cc1cc(OCCC[C@@H]2Cc3ccccc3[C@]23CC[C@@](Nc2cccc(Cl)c2)(C(=O)O)CC3)c2cc[nH]c2c1 [Example 487, (1r,2′R,4R)-4-(3-chloroanilino)-2′-{3-[(6-methyl-1H-indol-4-yl)oxy]propyl}-2′,3′-dihydrospiro[cyclohexane-1,1′-indene]-4-carboxylic acid]	72.9 nM
C[C@@H](COc1ccnc2c1[C@H](C)CCC2)C[C@H]1Cc2cc3c(cc2[C@]12CC[C@@](Nc1cccc(Cl)c1)(C(=O)Oc1ccc4c(c1)CCC4)CC2)OCO3 [Example 937, 2,3-dihydro-1H-inden-5-yl (1r,4S,6′S)-4-(3-chloroanilino)-6′-[(2R)-2-methyl-3-{[(5R)-5-methyl-5,6,7,8-tetrahydroquinolin-4-yl]oxy}propyl]-6′,7′-dihydro-2′H-spiro[cyclohexane-1,5′-indeno[5,6-d][1,3]dioxole]-4-carboxylate]	28 nM
Cc1ccc2[nH]ccc2c1OCCC[C@@H]1Cc2ccccc2[C@]12CC[C@@](Nc1cccc(Cl)c1)(C(=O)O)CC2 [Example 489, (1r,2′R,4R)-4-(3-chloroanilino)-2′-{3-[(5-methyl-1H-indol-4-yl)oxy]propyl}-2′,3′-dihydrospiro[cyclohexane-1,1′-indene]-4-carboxylic acid]	76 nM
O=C(O)[C@]1(Nc2cccc(Cl)c2)CC[C@@]2(CC1)c1ccccc1CC2CC(COc1ccnc2c1CCCC2)C(F)F (single isomer, unassigned) [Example 512, (1r,4r)-4-(3-chloroanilino)-2′-(3,3-difluoro-2-{[(5,6,7,8-tetrahydroquinolin-4-yl)oxy]methyl}propyl)-2′,3′-dihydrospiro[cyclohexane-1,1′-indene]-4-carboxylic acid]	22.7 nM
O=C(O)[C@]1(Nc2cccc(Cl)c2)CC[C@@]2(CC1)c1ccccc1C[C@H]2CCCOc1cccc2[nH]ccc12 [Example 485, (1r,2′R,4R)-4-(3-chloroanilino)-2′-{3-[(1H-indol-4-yl)oxy]propyl}-2′,3′-dihydrospiro[cyclohexane-1,1′-indene]-4-carboxylic acid]	45.5 nM
CC[C@H](COc1ccncc1)C[C@@H]1Cc2ccccc2[C@]12CC[C@@](Nc1cccc(Cl)c1)(C(=O)O)CC2 [Example 543, (1r,2′R,4R)-4-(3-chloroanilino)-2′-[(2S)-2-{[(pyridin-4-yl)oxy]methyl}butyl]-2′,3′-dihydrospiro[cyclohexane-1,1′-indene]-4-carboxylic acid]	126 nM
Cc1ccc2[nH]ccc2c1OCCC[C@H]1Cc2ccccc2[C@]12CC[C@@](Nc1cccc(Cl)c1)(C(=O)O)CC2 [Example 490, (1r,2′S,4S)-4-(3-chloroanilino)-2′-{3-[(5-methyl-1H-indol-4-yl)oxy]propyl}-2′,3′-dihydrospiro[cyclohexane-1,1′-indene]-4-carboxylic acid]	61.8 nM
Cc1cc(OCCC[C@H]2Cc3ccccc3[C@]23CC[C@@](Nc2cccc(Cl)c2)(C(=O)O)CC3)c2cc[nH]c2c1 [Example 488, (1r,2′S,4S)-4-(3-chloroanilino)-2′-{3-[(6-methyl-1H-indol-4-yl)oxy]propyl}-2′,3′-dihydrospiro[cyclohexane-1,1′-indene]-4-carboxylic acid]	152 nM
O=C(O)[C@]1(Nc2cccc(Cl)c2)CC[C@@]2(CC1)c1ccccc1C[C@@H]2CCCOc1cccc2[nH]ccc12 [Example 486, (1r,2′S,4S)-4-(3-chloroanilino)-2′-{3-[(1H-indol-4-yl)oxy]propyl}-2′,3′-dihydrospiro[cyclohexane-1,1′-indene]-4-carboxylic acid]	82 nM

Results, then the compound that gave them:

Ki	Compound
27.9 nM	O=C(O)[C@]1(Nc2cccc(Cl)c2)CC[C@@]2(CC1)c1ccccc1CC2CC(COc1ccnc2c1CCCC2)C(F)F (single isomer, unassigned) [Example 513, (1r,4r)-4-(3-chloroanilino)-2′-(3,3-difluoro-2-{[(5,6,7,8-tetrahydroquinolin-4-yl)oxy]methyl}propyl)-2′,3′-dihydrospiro[cyclohexane-1,1′-indene]-4-carboxylic acid]
2.8 nM	CC1CCN(C)c2nccc(OC[C@H](C)C[C@H]3Cc4ccccc4[C@]34CC[C@@](Nc3cccc(Cl)c3)(C(=O)O)CC4)c21 (single isomer, unassigned) [Example 644]
123 nM	CC(CC1Cc2ccccc2[C@]12CC[C@@](Nc1cccc(Cl)c1)(C(=O)O)CC2)C(C)Oc1ccnc2c1CCC2 (single isomer, unassigned) [Example 614, (1r,4r)-4-(3-chloroanilino)-2′-{3-[(6,7-dihydro-5H-cyclopenta[b]pyridin-4-yl)oxy]-2-methylbutyl}-2′,3′-dihydrospiro[cyclohexane-1,1′-indene]-4-carboxylic acid]
1.8 nM	O=C(O)[C@]1(Nc2cccc(Cl)c2)CC[C@@]2(CC1)c1ccccc1CC2CC(COCCN1CCOCC1)COc1ccnc2c1CCC2 (mixture of isomers) [Example 496, (1r,4r)-4-(3-chloroanilino)-2′-(2-{[(6,7-dihydro-5H-cyclopenta[b]pyridin-4-yl)oxy]methyl}-3-[2-(morpholin-4-yl)ethoxy]propyl)-2′,3′-dihydrospiro[cyclohexane-1,1′-indene]-4-carboxylic acid]
42.6 nM	C[C@@H](COc1ccnc2c1CCC2(C)O)C[C@H]1Cc2ccccc2[C@]12CC[C@@](Nc1cccc(Cl)c1)(C(=O)O)CC2 (stereo partly drawn) [Example 618, (1r,2′S,4S)-4-(3-chloroanilino)-2′-{(2R)-3-[(7-hydroxy-7-methyl-6,7-dihydro-5H-cyclopenta[b]pyridin-4-yl)oxy]-2-methylpropyl}-2′,3′-dihydrospiro[cyclohexane-1,1′-indene]-4-carboxylic acid]
2.68 nM	CCc1cnccc1OC[C@H](C)C[C@H]1Cc2ccccc2[C@]12CC[C@@](Nc1cccc(Cl)c1)(C(=O)O)CC2 [Example 588, (1r,2′S,4S)-4-(3-chloroanilino)-2′-{(2R)-3-[(3-ethylpyridin-4-yl)oxy]-2-methylpropyl}-2′,3′-dihydrospiro[cyclohexane-1,1′-indene]-4-carboxylic acid]
65.3 nM	Cc1cc(C(C)O)cc2c1CC(C[C@@H](C)COc1ccnc3c1[C@H](C)CCC3)[C@]21CC[C@](Nc2cccc(Cl)c2)(C(=O)O)CC1 (stereo partly drawn) [Example 761, (1r,4R)-4-(3-chloroanilino)-6′-(1-hydroxyethyl)-4′-methyl-2′-[(2R)-2-methyl-3-{[(5R)-5-methyl-5,6,7,8-tetrahydroquinolin-4-yl]oxy}propyl]-2′,3′-dihydrospiro[cyclohexane-1,1′-indene]-4-carboxylic acid]

Same assay, conditions: Ki determined from IC50

Compound	Ki
O=C(O)[C@]1(Nc2cccc(C(F)(F)F)c2)CC[C@]2(CC1)C(Br)=Cc1ccccc12 [Example 85, (1s,4s)-2′-bromo-4-[3-(trifluoromethyl)anilino]spiro[cyclohexane-1,1′-indene]-4-carboxylic acid]	424 nM
O=C(O)[C@]1(Nc2cccc(Cl)c2)CC[C@]2(CC1)C(CCc1ccccn1)=Cc1ccccc12 [Example 199, (1r,4r)-4-(3-chloroanilino)-2′-[2-(pyridin-2-yl)ethyl]spiro[cyclohexane-1,1′-indene]-4-carboxylic acid]	1250 nM
C[C@@H](COc1cccc2[nH]ccc12)CN1Cc2ccccc2[C@]12CC[C@@](Nc1cccc(Cl)c1)(C(=O)O)CC2 [Example 39, (1s,4S)-4-(3-chloroanilino)-2′-{(2R)-3-[(1H-indol-4-yl)oxy]-2-methylpropyl}-2′,3′-dihydrospiro[cyclohexane-1,1′-isoindole]-4-carboxylic acid]	44.9 nM
Cc1cccc(N[C@]2(C(=O)O)CC[C@@]3(CC2)C(Br)=Cc2ccccc23)c1 [Example 88, (1s,4s)-2′-bromo-4-(3-methylanilino)spiro[cyclohexane-1,1′-indene]-4-carboxylic acid]	503 nM

Further lines, results first:

Ki	Compound
437 nM	N#Cc1cccc(N[C@]2(C(=O)O)CC[C@@]3(CC2)C(Br)=Cc2ccccc23)c1 [Example 82, (1s,4s)-2′-bromo-4-(3-cyanoanilino)spiro[cyclohexane-1,1′-indene]-4-carboxylic acid]
91.6 nM	Cc1cccc2c1C=C(Br)[C@]21CC[C@](Nc2cccc(Cl)c2)(C(=O)O)CC1 [Example 141, (1s,4s)-2′-bromo-4-(3-chloroanilino)-4′-methylspiro[cyclohexane-1,1′-indene]-4-carboxylic acid]
